Our source for the IC50 values is ChEMBL document CHEMBL1201861, “Genomics of Drug Sensitity in Cancer screening data, Wellcome Trust Sanger Institute”.

A value given as a limit tells only on which side of the number the result lay.

One assay deals with COR-L279. As to the kind of experiment: SANGER: Inhibition of human COR-L279 cell growth in a cell viability assay. It counts as functional, cell-based. The settings on record: Homo sapiens, COR-L279.
The next assay relates to EB-3. As to the kind of experiment: cells. Type of assay: functional, cell-based, Homo sapiens. The settings on record: Homo sapiens, EB-3.
A further assay has as its system IMR-5. Description: cells. Type of assay: functional, cell-based, Homo sapiens. The conditions noted are these: Homo sapiens, IMR-5.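 Note: growth inhibition of human IMR-5 cells, read out with a cell viability assay.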
For the next assay, the system named is K052. Description: cells. Type of assay: functional, cell-based, Homo sapiens. The settings on record: Homo sapiens, K052.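 Note: Read-out from a cell viability assay, IC50 reflecting suppression of K052 cell growth.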
Another assay has as its system KMS-12-PE. Description: cells. It counts as functional, cell-based, Homo sapiens. The settings on record: Homo sapiens, KMS-12-PE.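 Note: growth inhibition of human KMS-12-PE cells, measured with a cell viability assay.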
The test system of another assay is LC-1F. Description: cells. Type of assay: functional, cell-based, Homo sapiens. The settings on record: Homo sapiens, LC-1F.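 Note: growth inhibition of human LC-1F cells, read out with a cell viability assay.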
The subject of another assay is MRK-nu-1. Description: cells. Type of assay: functional, cell-based, Homo sapiens. The conditions noted are these: Homo sapiens, MRK-nu-1.
A further assay deals with NB7. As to the kind of experiment: cells. It counts as functional, cell-based, Homo sapiens. The settings on record: Homo sapiens, NB7.
Another assay relates to NCI-H2081. As to the kind of experiment: cells. It counts as functional, cell-based, Homo sapiens. The settings on record: Homo sapiens, NCI-H2081.
The subject of another assay is NCI-H2227. As to the kind of experiment: cells. The settings on record: Homo sapiens, NCI-H2227. Type of assay: functional, cell-based, Homo sapiens.
The next assay relates to NCI-H345. Description: cells. It counts as functional, cell-based, Homo sapiens. The conditions noted are these: Homo sapiens, NCI-H345.
The subject of the next assay is RL95-2. As to the kind of experiment: cells. Type of assay: functional, cell-based. The conditions noted are these: Homo sapiens.
The next assay deals with SCLC-21H. As to the kind of experiment: cells. The conditions noted are these: Homo sapiens, SCLC-21H. It counts as functional, cell-based, Homo sapiens.
In the next assay the test system is SR. Description: cells. Type of assay: functional, cell-based, Homo sapiens. The settings on record: Homo sapiens, SR.
The next assay relates to TALL-1. As to the kind of experiment: cells. It counts as functional, cell-based, Homo sapiens. The settings on record: Homo sapiens, TALL-1.
A further assay relates to THP-1. Description: cells. Type of assay: functional, cell-based, Homo sapiens. The conditions noted are these: Homo sapiens, THP-1.
The test system of another assay is COR-L105. As to the kind of experiment: cells. Type of assay: functional, cell-based, Homo sapiens. The conditions noted are these: Homo sapiens, COR-L105.
A further assay concerns Ca9-22. Description: cells. The settings on record: Homo sapiens, Ca9-22. Type of assay: functional, cell-based, Homo sapiens.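 Note: growth inhibition of Ca9-22 cells, read out with a cell viability assay.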
In a further assay the test system is GP5d. As to the kind of experiment: cells. It counts as functional, cell-based, Homo sapiens. The settings on record: Homo sapiens, GP5d.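 Note: growth inhibition of human GP5d cells, read out with a cell viability assay.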
For another assay, the system named is HT-29. As to the kind of experiment: cells. Type of assay: functional, cell-based, Homo sapiens. The settings on record: Homo sapiens, HT-29.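 Note: growth inhibition of human HT-29 cells, read out by a cell viability assay.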
A further assay concerns HT-3. As to the kind of experiment: cells. Type of assay: functional, cell-based, Homo sapiens. The conditions noted are these: Homo sapiens, HT-3.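 Note: growth inhibition measured with a cell viability readout.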
In the next assay the test system is LCLC-103H cell line. As to the kind of experiment: cells. The conditions noted are these: Homo sapiens, LCLC-103H. Type of assay: functional, cell-based, Homo sapiens.
For the next assay, the system named is M14. Description: cells. Type of assay: functional, cell-based, Homo sapiens. The conditions noted are these: Homo sapiens, M14.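 Note: growth inhibition of M14 cells, read out with a cell viability assay.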
Another assay relates to NCI-H1651. Description: cells. The settings on record: Homo sapiens, NCI-H1651. It counts as functional, cell-based, Homo sapiens.
The next assay relates to NCI-H1793. Description: cells. Type of assay: functional, cell-based, Homo sapiens. The settings on record: Homo sapiens, NCI-H1793.
For another assay, the system named is NCI-H2342. As to the kind of experiment: cells. Type of assay: functional, cell-based, Homo sapiens. The settings on record: Homo sapiens, NCI-H2342.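 Note: growth inhibition of the cancer cell line, determined with a cell viability assay.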
In another assay the test system is NCI-H28. Description: cells. The settings on record: Homo sapiens, NCI-H28. Type of assay: functional, cell-based, Homo sapiens.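 Note: growth inhibition of human NCI-H28 cells, read out as cell viability.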
A further assay has as its system NCI-H358. Description: cells. Type of assay: functional, cell-based, Homo sapiens. The settings on record: Homo sapiens, NCI-H358.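 Note: growth inhibition of NCI-H358 human cells, read out with a cell viability assay.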
The subject of another assay is NCI-H661. Description: cells. Type of assay: functional, cell-based, Homo sapiens. The settings on record: Homo sapiens, NCI-H661.
For another assay, the system named is PC-3. Description: cells. Type of assay: functional, cell-based, Homo sapiens. The settings on record: Homo sapiens, PC-3.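 Note: cell viability assay measuring growth inhibition of PC-3 cells.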
The test system of the next assay is SJRH30. As to the kind of experiment: cells. The conditions noted are these: Homo sapiens, SJRH30. Type of assay: functional, cell-based, Homo sapiens.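 Note: growth inhibition of human SJRH30 cells, read out with a cell viability assay.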
The test system of a further assay is SK-MEL-30. As to the kind of experiment: cells. The settings on record: Homo sapiens, SK-MEL-30. It counts as functional, cell-based, Homo sapiens.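 Note: growth inhibition of SK-MEL-30 cells, determined with a cell viability assay.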
In the next assay the test system is SNU-387. Description: cells. Type of assay: functional, cell-based, Homo sapiens. The settings on record: Homo sapiens, SNU-387.
The next assay relates to SW1088. Description: cells. It counts as functional, cell-based, Homo sapiens. The settings on record: Homo sapiens, SW1088.
Another assay deals with SW13. As to the kind of experiment: cells. It counts as functional, cell-based, Homo sapiens. The settings on record: Homo sapiens, SW13.
The next assay deals with SW1417. Description: cells. The conditions noted are these: Homo sapiens, SW1417. It counts as functional, cell-based, Homo sapiens.
Another assay relates to SW756. Description: cells. It counts as functional, cell-based, Homo sapiens. The settings on record: Homo sapiens, SW756.
The next assay relates to CWR22R. As to the kind of experiment: cells. Type of assay: functional, cell-based, Homo sapiens. The conditions noted are these: Homo sapiens, 22Rv1.
The test system of another assay is 639-V. As to the kind of experiment: cells. It counts as functional, cell-based, Homo sapiens. The settings on record: Homo sapiens, 639-V.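 Note: growth inhibition of 639-V cells, read out with a cell viability assay.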
The next assay concerns 8505C. Description: cells. The conditions noted are these: Homo sapiens, 8505C. It counts as functional, cell-based, Homo sapiens.
A further assay concerns A204. Description: cells. Type of assay: functional, cell-based, Homo sapiens. The conditions noted are these: Homo sapiens, A204.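 Note: growth inhibition of human A204 cells, read out with a cell viability assay.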
The next assay relates to BHY. As to the kind of experiment: cells. It counts as functional, cell-based, Homo sapiens. The settings on record: Homo sapiens, BHY.
The test system of another assay is CAL-33. Description: cells. Type of assay: functional, cell-based, Homo sapiens. The settings on record: Homo sapiens, CAL-33.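 Note: growth inhibition of CAL-33 cells, read out with a cell viability assay.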
Another assay relates to CAL-51. Description: cells. It counts as functional, cell-based, Homo sapiens. The conditions noted are these: Homo sapiens, CAL-51.
For another assay, the system named is CAL-62. Description: cells. Type of assay: functional, cell-based, Homo sapiens. The conditions noted are these: Homo sapiens, CAL-62.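 Note: growth inhibition of CAL-62 cells, read out with a cell viability assay.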
A further assay relates to U2OS. As to the kind of experiment: cells. It counts as functional, cell-based, Homo sapiens, U-2-OS. The settings on record: Homo sapiens, U2OS.
Another assay relates to UACC-893. Description: cells. Type of assay: functional, cell-based, Homo sapiens. The settings on record: Homo sapiens, UACC-893.
Another assay has as its system EW-22. Description: cells. The settings on record: Homo sapiens, EW-22. It counts as functional, cell-based, Homo sapiens.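 Note: growth inhibition of the EW-22 cell line, measured with a cell viability readout.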

Description for 639-V: SANGER: Inhibition of human 639-V cell growth in a cell viability assay.
Description for 8505C: SANGER: Inhibition of human 8505C cell growth in a cell viability assay.
Description for A204: SANGER: Inhibition of human A204 cell growth in a cell viability assay.
Description for BHY: SANGER: Inhibition of human BHY cell growth in a cell viability assay.
Description for CAL-33: SANGER: Inhibition of human CAL-33 cell growth in a cell viability assay.
Description for CAL-51: SANGER: Inhibition of human CAL-51 cell growth in a cell viability assay.
Description for CAL-62: SANGER: Inhibition of human CAL-62 cell growth in a cell viability assay.
Description for COR-L105: SANGER: Inhibition of human COR-L105 cell growth in a cell viability assay.
Description for CWR22R: SANGER: Inhibition of human 22RV1 cell growth in a cell viability assay.
Description for Ca9-22: SANGER: Inhibition of human Ca9-22 cell growth in a cell viability assay.
Description for EB-3: SANGER: Inhibition of human EB-3 cell growth in a cell viability assay.
Description for EW-22: SANGER: Inhibition of human EW-22 cell growth in a cell viability assay.
Description for GP5d: SANGER: Inhibition of human GP5d cell growth in a cell viability assay.
Description for HT-29: SANGER: Inhibition of human HT-29 cell growth in a cell viability assay.
Description for HT-3: SANGER: Inhibition of human HT-3 cell growth in a cell viability assay.
Description for IMR-5: SANGER: Inhibition of human IMR-5 cell growth in a cell viability assay.
Description for K052: SANGER: Inhibition of human K052 cell growth in a cell viability assay.
Description for KMS-12-PE: SANGER: Inhibition of human KMS-12-PE cell growth in a cell viability assay.
Description for LC-1F: SANGER: Inhibition of human LC-1F cell growth in a cell viability assay.
Description for LCLC-103H cell line: SANGER: Inhibition of human LCLC-103H cell growth in a cell viability assay.
Description for M14: SANGER: Inhibition of human M14 cell growth in a cell viability assay.
Description for MRK-nu-1: SANGER: Inhibition of human MRK-nu-1 cell growth in a cell viability assay.
Description for NB7: SANGER: Inhibition of human NB7 cell growth in a cell viability assay.
Description for NCI-H1651: SANGER: Inhibition of human NCI-H1651 cell growth in a cell viability assay.
Description for NCI-H1793: SANGER: Inhibition of human NCI-H1793 cell growth in a cell viability assay.
Description for NCI-H2081: SANGER: Inhibition of human NCI-H2081 cell growth in a cell viability assay.
Description for NCI-H2227: SANGER: Inhibition of human NCI-H2227 cell growth in a cell viability assay.
Description for NCI-H2342: SANGER: Inhibition of human NCI-H2342 cell growth in a cell viability assay.
Description for NCI-H28: SANGER: Inhibition of human NCI-H28 cell growth in a cell viability assay.
Description for NCI-H345: SANGER: Inhibition of human NCI-H345 cell growth in a cell viability assay.
Description for NCI-H358: SANGER: Inhibition of human NCI-H358 cell growth in a cell viability assay.
Description for NCI-H661: SANGER: Inhibition of human NCI-H661 cell growth in a cell viability assay.
Description for PC-3: SANGER: Inhibition of human PC-3 cell growth in a cell viability assay.
Description for RL95-2: SANGER: Inhibition of human RL95-2 cell growth in a cell viability assay.
Description for SCLC-21H: SANGER: Inhibition of human SCLC-21H cell growth in a cell viability assay.
Description for SJRH30: SANGER: Inhibition of human SJRH30 cell growth in a cell viability assay.
Description for SK-MEL-30: SANGER: Inhibition of human SK-MEL-30 cell growth in a cell viability assay.
Description for SNU-387: SANGER: Inhibition of human SNU-387 cell growth in a cell viability assay.
Description for SR: SANGER: Inhibition of human SR cell growth in a cell viability assay.
Description for SW1088: SANGER: Inhibition of human SW1088 cell growth in a cell viability assay.
Description for SW13: SANGER: Inhibition of human SW13 cell growth in a cell viability assay.
Description for SW1417: SANGER: Inhibition of human SW1417 cell growth in a cell viability assay.
Description for SW756: SANGER: Inhibition of human SW756 cell growth in a cell viability assay.
Description for TALL-1: SANGER: Inhibition of human TALL-1 cell growth in a cell viability assay.
Description for THP-1: SANGER: Inhibition of human THP-1 cell growth in a cell viability assay.
Description for U2OS: SANGER: Inhibition of human U-2-OS cell growth in a cell viability assay.
Description for UACC-893: SANGER: Inhibition of human UACC-893 cell growth in a cell viability assay.

What is called IC50 is the concentration needed to halve the response being measured. Low values mean greater potency in that assay, high ones weaker potency in that assay. `COc1cc(N2CCN(C)CC2)ccc1Nc1ncc2c(n1)N(C)c1ccccc1C(=O)N2C`: the IC50 was 7.99 µM in the assay on COR-L279; > 8 µM in the assay with EB-3; 6.35 µM with IMR-5; 6.24 µM in the assay on K052; > 8 µM in the assay with KMS-12-PE; > 8 µM in the assay with LC-1F. Besides, the IC50 in the assay on MRK-nu-1, with NB7, in the assay on NCI-H2081, with NCI-H2227, in the assay on NCI-H345 and in the assay with RL95-2 was > 8 µM in each case. The IC50 in the assay with SCLC-21H is > 8 µM; in the assay on SR, 6.48 µM; in the assay on TALL-1 it was > 8 µM; in the assay on THP-1, > 8 µM.
Regarding `N#Cc1c(O)c2c(-c3ccc(-c4ccccc4O)cc3)csc2[nH]c1=O`, the concentration for half-maximal inhibition (IC50) in the assay with COR-L105 is > 1.02 µM; in the assay with COR-L279, 0.253 µM; with Ca9-22 it was > 1.02 µM; in the assay on EB-3, 0.293 µM; in the assay on GP5d it was > 1.02 µM; in the assay with HT-29 it was > 1.02 µM. Moreover, the IC50 is > 1.02 µM in the assay on HT-3; > 1.02 µM in the assay on IMR-5; 0.791 µM with K052; 0.419 µM in the assay with KMS-12-PE; > 1.02 µM in the assay on LC-1F; > 1.02 µM with LCLC-103H cell line. Besides, the half-inhibitory concentration (IC50) in the assay with M14 is > 1.02 µM; in the assay on MRK-nu-1 it was 0.178 µM; in the assay on NCI-H1651 it was > 1.02 µM; in the assay on NCI-H1793 it was > 1.02 µM; in the assay on NCI-H2081, > 1.02 µM; in the assay with NCI-H2227 it was > 1.02 µM. The half-maximal inhibitory concentration (IC50) with NCI-H2342, in the assay on NCI-H28, with NCI-H345, in the assay on NCI-H358, with NCI-H661 and in the assay on PC-3 was > 1.02 µM throughout. Besides, the IC50 in the assay with RL95-2 was > 1.02 µM; in the assay on SCLC-21H, > 1.02 µM; in the assay with SJRH30, 0.495 µM; with SK-MEL-30 it was > 1.02 µM; with SNU-387, > 1.02 µM; with SR, 0.114 µM. In addition, the concentration for half-maximal inhibition (IC50) with SW1088, in the assay on SW13, with SW1417, in the assay with SW756, with TALL-1 and in the assay on CWR22R was > 1.02 µM in each case. Also, the IC50 with 639-V, in the assay with 8505C, in the assay with A204, with BHY, in the assay on CAL-33 and in the assay with CAL-51 was > 1.02 µM throughout. For the same compound, the IC50 with CAL-62 was > 1.02 µM; in the assay with THP-1 it was 0.342 µM; in the assay with U2OS it was > 1.02 µM; with UACC-893 it was > 1.02 µM.
Regarding `COc1cc2ncn(-c3cc(OCc4ccccc4S(C)(=O)=O)c(C#N)s3)c2cc1OC` [GSK-319347A], the concentration for half-maximal inhibition (IC50) with COR-L279, in the assay on EB-3, with EW-22, in the assay with IMR-5, in the assay with K052 and with KMS-12-PE was > 5 µM throughout. In addition, the IC50 with LC-1F, in the assay on MRK-nu-1, with NB7, in the assay with NCI-H2081, with NCI-H2227 and in the assay with NCI-H345 was > 5 µM in each case. Moreover, the half-maximal inhibitory concentration (IC50) with RL95-2, in the assay on SCLC-21H, in the assay on SR, in the assay on TALL-1 and with THP-1 was > 5 µM each time.
With `CC[C@H](CO)Nc1nc(NCc2ccccc2)c2ncn(C(C)C)c2n1` [SELICICLIB], the IC50 in the assay with COR-L279 was 12.3 µM; with EB-3, > 16 µM; with IMR-5, > 16 µM; in the assay on KMS-12-PE, > 16 µM; in the assay with LC-1F it was > 16 µM; with MRK-nu-1, 7.13 µM. For the same compound, the 50% inhibitory concentration (IC50) with NB7, with NCI-H2081, with NCI-H2227, in the assay on NCI-H345, in the assay with RL95-2 and in the assay on SCLC-21H was > 16 µM in each case. Also, the IC50 in the assay with SR, with TALL-1 and with THP-1 was > 16 µM each time.
